Test results published in patent US20250387334A1, “Oxyanion azide-benzaldehyde acetal acid-degradable lipids” (The Regents of the University of California, priority 2023, published 2025).
Each block holds one molecule with its values, some of them ahead of it.

Tests used:
[1] = IL-22 protein; cited from earlier work
[2] = Hydrolysis kinetics of compounds 1-3 and their reduced forms (plate reader, mass spectrum); type: physicochemical; settings: for compound detected in the buffer by mass spectrum: 6 hours; for half-life: buffer
Source text: Engineering PEG-lipids to rapidly hydrolyze in endosomes has the potential to generate LNPs that have high levels of PEGylation and also transfect cells efficiently^10, 19, 20. The PEG-lipid reduces LNP toxicity and enhances LNP diffusion through tissue. However, LNPs are currently made with 0.5-1.5 mole percent of the PEG-lipid because increasing PEGylation levels beyond these levels can have detrimental effects. For example, the PEG-lipid lowers endosomal disruption by preventing the mixing of the ionizable lipid with endosomal lipids^20, 21 and causes the formation of anti-PEG antibodies^22. LNPs made with acid-degradable PEG-lipids should transfect cells efficiently even at high levels of PEGylation because they will hydrolyze off the LNP after endocytosis and will be released from the LNP surface. In addition, the immunogenicity of PEG dramatically increases after conjugation to lipids, and acid-degradable PEG-lipids may also have lower immunogenicity than traditional PEG-lipids because they will rapidly generate free PEG after endocytosis^22, 23.

[3] = Acid-catalyzed hydrolysis kinetics of model azido-acetal 4 and its reduced form 5; type: physicochemical
Source text: RD-LNPs are based upon the rapid hydrolysis of the azido-acetal linker at pH 6.0. We synthesized the model azido-acetal 4 and measured its acid-catalyzed hydrolysis rate before and after reduction to investigate whether reductive activation accelerates the hydrolysis kinetics of an azido-acetal. […] The azido-acetal has the stability needed for performing multi-step organic reactions and should enable the development of new materials that are hypersensitive to acidic conditions. […] In addition, the reduced azido-acetal hydrolyzes with a t1/2<30 minutes at pH 6.0 and has the hydrolysis kinetics needed to degrade in endosomes before trafficking to lysosomes occurs4. The two-step hydrolysis mechanism of the azido-acetal overcomes the stability problems preventing the development of rapidly hydrolyzing lipids and provides a general strategy for developing lipids and materials that rapidly hydrolyze at endosomal pHs.

[4] = DTT reduction kinetics of compound 4; type: physicochemical

Molecule: IL-22: soluble IL-22 protein, cytokine
- circulation half-life [1]: under 2 hours

Molecule: CC(C)CCC[C@@H](C)[C@H]1CC[C@H]2[C@@H]3CC=C4C[C@@H](OC(=O)NCCOC(OCC[N+](C)(C)C)c5ccc(N=[N+]=[N-])cc5)CC[C@]4(C)[C@H]3CC[C@]12C (some centres unmarked) [Compound 3]
- compound detected in the buffer by mass spectrum ([2]; pH 4 and pH 5, 37° C.): nearly no compound 3 was detected
- compound detected in the buffer by mass spectrum ([2]; pH 6 and pH 7.4, 37° C.): a large amount

Molecule: COCCOCCOCCOCCOCCOCCOCCOCCOCCOCCOCCOCCOCCOCCOCCOCCOCCOCCOCCOCCOCCOCCOCCOCCOCCOCCOCCOCCOCCOCCOCCOCCOCCOCCOCCOCCOCCOCCOCCOCCOCCOCCOCCOCCOCCOC(=O)NCCOC(OCCNC(=O)O[C@H]1CC[C@@]2(C)C(=CC[C@H]3[C@@H]4CC[C@H]([C@H](C)CCCC(C)C)[C@@]4(C)CC[C@@H]32)C1)c1ccc(N=[N+]=[N-])cc1 (some centres unmarked) [Compound 1]
- half-life ([2]; pH 4.0, read-out: t1/2 (minute) pH 4.0): 54.8 ± 3.89 min
- half-life ([2]; pH 5.0, read-out: t1/2 (minute) pH 5.0): 192 ± 28.3 min
- half-life ([2]; pH 6.0, cell prints day, read-out: t1/2 pH 6.0): 4280 min
- half-life ([2]; pH 7.4, cell prints day, read-out: t1/2 pH 7.4 (converted)): 28500 min

- half-life ([3]; buffer, pH 4): 0.0567 ± 0.00133 h
- half-life ([3]; buffer, pH 5): 0.619 ± 0.0115 h
- half-life ([3]; buffer, pH 6): 8.57 ± 0.117 h
- half-life ([3]; pH 7.4): 507 h
- predicted hydrolysis half-life ([3]; pH 7.4): 21 days
- hydrolysis after 6.5 hours ([3]; pH 7.4, 6.5 hours): under 1%
- half-life ([4]; 10 mM DTT solution (chemical reduction), read-out: DTT reduction t1/2 (minute) 10 mM): 26.4 ± 3.37 min
- half-life ([4]; 25 mM DTT solution (chemical reduction), read-out: DTT reduction t1/2 (minute) 25 mM): 14.2 ± 0.5 min
- half-life ([4]; 50 mM DTT solution (chemical reduction), read-out: DTT reduction t1/2 (minute) 50 mM): 11.9 ± 1.85 min
- half-life ([4]; 100 mM DTT solution (chemical reduction), read-out: DTT reduction t1/2 (minute) 100 mM): 7.21 ± 0.11 min
Molecule: COC(=O)NCCOC(OCCNC(=O)OC)c1ccc(N=[N+]=[N-])cc1 [Compound 4]
